Reference: US4442044A, “Process for preparing monoesters and diesters of N-alkyl substituted amino methyl phosphonic acid” (priority 1983, dated 1984)

Legend:
Experiment in all cases: post-emergent herbicidal activity, greenhouse
Assay type in all cases: in vivo
Wheat = details: Table II
Method in brief: (§1)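 Seeds or propagules sown in compacted top soil, grown 2–3 weeks in greenhouse, then sprayed with compound solution/suspension containing ~0.4% emulsifier at tabulated rates. Injury scored visually versus untreated controls at ~2 and 4 weeks after treatment, expressed as a herbicidal activity index.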

Barnyardgrass = system: Barnyardgrass
Method in brief: as §1

Velvetleaf = system: Velvetleaf
Method in brief: as §1

Canada Thistle = details: Table I, 4 WAT
Method in brief: as §1

Cocklebur = system: Cocklebur
Method in brief: as §1

Quackgrass = details: Table I, 4 WAT
Method in brief: as §1

Hemp Sesbania = details: Table II
Method in brief: as §1

Sorghum = details: Table II
Method in brief: as §1

Yellow Nutsedge = details: Table I, 4 WAT
Method in brief: as §1

Soybean = details: Table II
Method in brief: as §1

Johnsongrass = details: Table I, 4 WAT
Method in brief: as §1

Morningglory = system: Morningglory
Method in brief: as §1

Panicum Spp = details: Table II
Method in brief: as §1

Rice = details: Table II
Method in brief: as §1

Crabgrass = details: Table II, 4 WAT
Method in brief: as §1

Downy Brome = system: Downy Brome
Method in brief: as §1

Lambsquarters = system: Lambsquarters
Method in brief: as §1

Wild Buckwheat = details: Table II
Method in brief: as §1

Sugar Beet = details: Table II
Method in brief: as §1

Smartweed = system: Smartweed
Method in brief: as §1

Measured: post-emergent herbicidal activity index

CCOC(=O)CNCP(=O)(O)OCC(Cl)(Cl)Cl [Example 27, glycine, N-[[hydroxy(2,2,2-trichloroethoxy)-phosphinyl]methyl]-, ethyl ester]
3 (75-99% control): Wheat; 4 WAT, 0.28 kg/h | Barnyardgrass; Table I, 4 WAT, 5.6 kg/h | Barnyardgrass; Table I, 4 WAT, 11.2 kg/h | Barnyardgrass; Table II, 4 WAT, 0.28 kg/h | Barnyardgrass; Table II, 4 WAT, 1.12 kg/h | Barnyardgrass; Table II, 4 WAT, 5.6 kg/h | Cocklebur; Table II, 4 WAT, 5.6 kg/h | Hemp Sesbania; 4 WAT, 5.6 kg/h | Sorghum; 4 WAT, 5.6 kg/h | Soybean; 4 WAT, 5.6 kg/h | Panicum Spp; 4 WAT, 0.28 kg/h | Rice; 4 WAT, 0.28 kg/h | Rice; 4 WAT, 1.12 kg/h | Rice; 4 WAT, 5.6 kg/h | Crabgrass; 1.12 kg/h | Downy Brome; Table II, 4 WAT, 0.28 kg/h | Downy Brome; Table II, 4 WAT, 1.12 kg/h | Downy Brome; Table II, 4 WAT, 5.6 kg/h | Lambsquarters; Table I, 4 WAT, 5.6 kg/h | Lambsquarters; Table I, 4 WAT, 11.2 kg/h | Lambsquarters; Table II, 4 WAT, 5.6 kg/h | Sugar Beet; 4 WAT, 5.6 kg/h | Smartweed; Table II, 4 WAT, 0.28 kg/h | Smartweed; Table II, 4 WAT, 5.6 kg/h
4 (100% control): Wheat; 4 WAT, 5.6 kg/h | Panicum Spp; 4 WAT, 1.12 kg/h | Panicum Spp; 4 WAT, 5.6 kg/h | Crabgrass; 5.6 kg/h
2 (50-74% control): Wheat; 4 WAT, 1.12 kg/h | Velvetleaf; Table I, 4 WAT, 11.2 kg/h | Canada Thistle; 11.2 kg/h | Cocklebur; Table I, 4 WAT, 5.6 kg/h | Cocklebur; Table I, 4 WAT, 11.2 kg/h | Cocklebur; Table II, 4 WAT, 0.28 kg/h | Cocklebur; Table II, 4 WAT, 1.12 kg/h | Hemp Sesbania; 4 WAT, 1.12 kg/h | Sorghum; 4 WAT, 0.28 kg/h | Sorghum; 4 WAT, 1.12 kg/h | Yellow Nutsedge; 11.2 kg/h | Soybean; 4 WAT, 0.28 kg/h | Soybean; 4 WAT, 1.12 kg/h | Johnsongrass; 5.6 kg/h | Morningglory; Table I, 4 WAT, 5.6 kg/h | Morningglory; Table I, 4 WAT, 11.2 kg/h | Morningglory; Table II, 4 WAT, 0.28 kg/h | Morningglory; Table II, 4 WAT, 1.12 kg/h | Morningglory; Table II, 4 WAT, 5.6 kg/h | Lambsquarters; Table II, 4 WAT, 1.12 kg/h | Wild Buckwheat; 4 WAT, 0.28 kg/h | Wild Buckwheat; 4 WAT, 1.12 kg/h | Wild Buckwheat; 4 WAT, 5.6 kg/h | Sugar Beet; 4 WAT, 0.28 kg/h | Sugar Beet; 4 WAT, 1.12 kg/h | Smartweed; Table I, 4 WAT, 5.6 kg/h | Smartweed; Table I, 4 WAT, 11.2 kg/h | Smartweed; Table II, 4 WAT, 1.12 kg/h
0 (0-24% control): Wheat; 2 WAT, 0.01 kg/h | Wheat; 2 WAT, 0.06 kg/h | Barnyardgrass; Table II, 2 WAT, 0.01 kg/h | Barnyardgrass; Table II, 2 WAT, 0.06 kg/h | Velvetleaf; Table II, 2 WAT, 0.01 kg/h | Velvetleaf; Table II, 2 WAT, 0.06 kg/h | Cocklebur; Table II, 2 WAT, 0.01 kg/h | Cocklebur; Table II, 2 WAT, 0.06 kg/h | Hemp Sesbania; 2 WAT, 0.01 kg/h | Hemp Sesbania; 2 WAT, 0.06 kg/h | Sorghum; 2 WAT, 0.01 kg/h | Sorghum; 2 WAT, 0.06 kg/h | Yellow Nutsedge; 5.6 kg/h | Soybean; 2 WAT, 0.01 kg/h | Soybean; 2 WAT, 0.06 kg/h | Johnsongrass; 11.2 kg/h | Morningglory; Table II, 2 WAT, 0.01 kg/h | Morningglory; Table II, 2 WAT, 0.06 kg/h | Panicum Spp; 2 WAT, 0.01 kg/h | Panicum Spp; 2 WAT, 0.06 kg/h | Rice; 2 WAT, 0.01 kg/h | Rice; 2 WAT, 0.06 kg/h | Downy Brome; Table I, 4 WAT, 5.6 kg/h | Downy Brome; Table I, 4 WAT, 11.2 kg/h | Downy Brome; Table II, 2 WAT, 0.01 kg/h | Downy Brome; Table II, 2 WAT, 0.06 kg/h | Lambsquarters; Table II, 2 WAT, 0.01 kg/h | Lambsquarters; Table II, 2 WAT, 0.06 kg/h | Wild Buckwheat; 2 WAT, 0.01 kg/h | Wild Buckwheat; 2 WAT, 0.06 kg/h | Sugar Beet; 2 WAT, 0.01 kg/h | Sugar Beet; 2 WAT, 0.06 kg/h | Smartweed; Table II, 2 WAT, 0.01 kg/h | Smartweed; Table II, 2 WAT, 0.06 kg/h
1 (25-49% control): Velvetleaf; Table I, 4 WAT, 5.6 kg/h | Velvetleaf; Table II, 4 WAT, 0.28 kg/h | Velvetleaf; Table II, 4 WAT, 1.12 kg/h | Velvetleaf; Table II, 4 WAT, 5.6 kg/h | Canada Thistle; 5.6 kg/h | Quackgrass; 5.6 kg/h | Quackgrass; 11.2 kg/h | Hemp Sesbania; 4 WAT, 0.28 kg/h | Lambsquarters; Table II, 4 WAT, 0.28 kg/h
